The source of these data is PubChem BioAssay (NCI).

Some test systems named below: MDA-N; K-562 leukemia; NCI-H522 lung; HOP-62 NSCLC; DU-145 prostate; HCT-15 colon; SNB-75 CNS; PC-3 prostate; UO-31 renal; NCI-H226 lung.
Assay in all cases: growth of human tumour cells (NCI), 48 h

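A five-concentration, 48-hour dose response in 96-well plates underlies each endpoint, interpolated linearly between surrounding concentrations. At the TGI there is no net growth.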

Take `O=c1nc2c(c(-c3ccc(Br)cc3)[nH]1)COC/C2=C\c1ccc(Br)cc1`: the TGI in the assay with MDA-N, in the assay on K-562 leukemia, in the assay on NCI-H522 lung, in the assay with HOP-62 NSCLC, in the assay with DU-145 prostate and in the assay with HCT-15 colon was greater than 50 µM in each case. The TGI in the assay on SNB-75 CNS, with PC-3 prostate, in the assay on UO-31 renal and in the assay on NCI-H226 lung was greater than 50 µM in each case.
For the compound `O=[N+]([O-])c1ccc(NC(=S)N=Nc2c(O)[nH]c3ccc([N+](=O)[O-])cc23)cc1`, the TGI in the assay with MDA-N is 41.7 µM; in the assay on K-562 leukemia, greater than 100 µM; with NCI-H522 lung, 60.5 µM; in the assay on HOP-62 NSCLC, 50.4 µM; in the assay on DU-145 prostate, 49 µM; with HCT-15 colon, 46.8 µM. The TGI was 42.8 µM in the assay on SNB-75 CNS, 49.3 µM with PC-3 prostate, 45.1 µM with UO-31 renal and 86.5 µM in the assay with NCI-H226 lung.
For the compound `COc1ccccc1C1Nn2c(nc3ccccc3c2=O)N1c1ccc(C)cc1` (stereo not given), the TGI came to 20.9 µM in the assay with MDA-N; 33.8 µM in the assay on K-562 leukemia; 28.5 µM in the assay on NCI-H522 lung; 20.2 µM in the assay on HOP-62 NSCLC; 28.2 µM with DU-145 prostate; 16.9 µM with HCT-15 colon. Also, the TGI stood at 30.5 µM with SNB-75 CNS, 10.8 µM in the assay with PC-3 prostate, 21.2 µM in the assay on UO-31 renal and 9.94 µM in the assay on NCI-H226 lung.
Turning to `CC1C(NNc2ccccc2)Oc2cc3c(cc2C1c1ccccc1O)OCO3` (stereo not given), the TGI amounted to 18.4 µM with MDA-N; 4.34 µM in the assay with K-562 leukemia; 14.2 µM with NCI-H522 lung; 16.2 µM in the assay with HOP-62 NSCLC; 15.1 µM in the assay with DU-145 prostate; 15.2 µM in the assay on HCT-15 colon. Besides, the TGI with SNB-75 CNS was determined as 23.6 µM; in the assay on PC-3 prostate, 21.5 µM; with UO-31 renal, 11 µM; with NCI-H226 lung it was 33.2 µM.
Regarding `Cc1cc2c(O)c(c1)CN(CC(=O)O)Cc1cc(C)cc(c1O)CN(CC(=O)O)Cc1cc(C)cc(c1O)CN(CC(=O)O)C2`, the TGI in the assay on MDA-N, in the assay on K-562 leukemia, with NCI-H522 lung, in the assay with HOP-62 NSCLC, with DU-145 prostate and in the assay with HCT-15 colon was greater than 100 µM throughout. Moreover, the TGI in the assay on SNB-75 CNS, in the assay on PC-3 prostate, in the assay with UO-31 renal and with NCI-H226 lung was greater than 100 µM throughout.
Regarding `COc1cc(C(c2c(O)c3ccccc3oc2=O)c2c(O)c3ccccc3oc2=O)cc(Br)c1O`, the TGI with MDA-N is 36 µM; in the assay on K-562 leukemia it was greater than 100 µM; with NCI-H522 lung, 26.8 µM; in the assay on HOP-62 NSCLC, 45.8 µM; with DU-145 prostate it was 33.6 µM; in the assay with HCT-15 colon it was 36.4 µM. For the same compound, the TGI with SNB-75 CNS is 39.4 µM; in the assay with PC-3 prostate it was 35 µM; in the assay on UO-31 renal, 31 µM; with NCI-H226 lung, 49.1 µM.
Consider `C1=C2C3=[N+](CCCCC3)CC2Cc2ccsc21` (stereo not given), for which the TGI in the assay on MDA-N, with K-562 leukemia, in the assay with NCI-H522 lung, in the assay with HOP-62 NSCLC, in the assay on DU-145 prostate and with HCT-15 colon was greater than 100 µM throughout. Also, the TGI in the assay with SNB-75 CNS, in the assay on PC-3 prostate, with UO-31 renal and in the assay with NCI-H226 lung was greater than 100 µM in each case.
As to `CC(C)C(=O)C(C)(C)CCc1ccccn1`, the TGI in the assay with MDA-N, with K-562 leukemia, in the assay on NCI-H522 lung, in the assay with HOP-62 NSCLC, with DU-145 prostate and with HCT-15 colon was greater than 100 µM each time. The TGI with SNB-75 CNS, in the assay with PC-3 prostate, in the assay with UO-31 renal and in the assay with NCI-H226 lung was greater than 100 µM in each case.
As to `S=C(N/N=C\C(=N/NC(=S)N1CCCCC1)c1ccccc1)N1CCCCC1`, the TGI was greater than 100 µM with MDA-N; greater than 100 µM in the assay with K-562 leukemia; 3.77 µM with NCI-H522 lung; 5.83 µM with HOP-62 NSCLC; 3.02 µM in the assay on DU-145 prostate; 5.1 µM with HCT-15 colon. The TGI in the assay on SNB-75 CNS turned out to be 3.72 µM; in the assay on PC-3 prostate, 4.06 µM; in the assay with UO-31 renal it was 3.39 µM; in the assay with NCI-H226 lung, 3.38 µM.
Take `COc1cc(CC(C)NC(C)=O)cc(OC)c1` (stereo not given): the TGI with MDA-N, in the assay with K-562 leukemia, with NCI-H522 lung, with HOP-62 NSCLC, in the assay with DU-145 prostate and in the assay on HCT-15 colon was greater than 100 µM throughout. Moreover, the TGI in the assay with SNB-75 CNS, with PC-3 prostate, with UO-31 renal and in the assay with NCI-H226 lung was greater than 100 µM throughout.
Take `CCOc1ccc(Nc2nc(N)nc(N)c2N)cc1`: the TGI in the assay with MDA-N was 13.3 µM; in the assay with K-562 leukemia, 50.1 µM; with NCI-H522 lung, 52.1 µM; in the assay with HOP-62 NSCLC, 79 µM; in the assay on DU-145 prostate it was greater than 100 µM; with HCT-15 colon, greater than 100 µM. The TGI in the assay with SNB-75 CNS was 70.5 µM; in the assay with PC-3 prostate it was greater than 100 µM; in the assay on UO-31 renal, 74.3 µM; in the assay on NCI-H226 lung, greater than 100 µM.
Consider `C/C=C(/C)C(=O)OC1CC(C)[C@H]2CC(=O)C(C)=C2CC1C(C)(C)OC(C)=O` (stereo not given in full), for which the TGI in the assay with MDA-N is greater than 100 µM; in the assay on K-562 leukemia, greater than 100 µM; with NCI-H522 lung, 53 µM; in the assay with HOP-62 NSCLC it was 95 µM; in the assay on DU-145 prostate it was greater than 100 µM; in the assay on HCT-15 colon it was greater than 100 µM. Further, the TGI was greater than 100 µM with SNB-75 CNS, greater than 100 µM in the assay with PC-3 prostate, 83.9 µM in the assay with UO-31 renal and greater than 100 µM in the assay with NCI-H226 lung.
On to `Cn1c(=O)c(-c2ccccc2)c(O)c2ccccc21`, for which the TGI with MDA-N, in the assay on K-562 leukemia, in the assay with NCI-H522 lung, with HOP-62 NSCLC, with DU-145 prostate and in the assay with HCT-15 colon was greater than 100 µM each time. Further, the TGI in the assay with SNB-75 CNS, in the assay on PC-3 prostate, with UO-31 renal and in the assay with NCI-H226 lung was greater than 100 µM in each case.
